{"source": "paper PMC7961996", "about": "“Small Immunomodulatory Molecules as Potential Therapeutics in Experimental Murine Models of Acute Lung Injury (ALI)/Acute Respiratory Distress Syndrome (ARDS)” (International Journal of Molecular Sciences, 2021)", "key": {"[1]": {"experiment": "Pharmacokinetic study, bronchoalveolar lavage fluid (BALF)", "type": "in vivo, Sprague Dawley rats", "experimental": "All PK studies were also conducted with 8–10-week-old male and female Sprague Dawley rats. An additional nine animals/sex/dose were used for PK analysis and blood (approximately 0.3 mL each) was collected from each rat on days 1 and 3 of the treatment period at time points of 5, 30, 60, 90, 120, and 180 min, and 6, 12 h, and 24 h post dose that were randomized to provide a total of three samples/sex for each time point. Samples were collected by jugular venipuncture and the samples were collected into tubes containing the anticoagulant, K3EDTA. The collection of BALF was limited to the terminal time points of 6 h, 12 h, and 24 h. AVR-48 concentrations in the blood and BALF were determined using LC/MS/MS analysis developed in house. PK parameters were estimated using Phoenix pharmacokinetic software (Certara, Princeton, NJ, USA) using a non-compartmental approach consistent with the IV bolus injection."}, "LPS-induced ALI mice": {"system": "LPS-induced ALI mice", "experiment": "LPS-induced ALI murine model", "type": "in vivo, C57BL6/J mice", "experimental": "(§1) For the mouse efficacy studies, both AVR-25 and AVR-48 were reconstituted in 0.9% sterile normal saline to give a final concentration of 10 mg/kg; 125 µL was administered intraperitoneally (IP) for hyperoxia- and LPS- induced lung injury, and IV via the lateral tail vein for CLP-induced lung injury. Imipenem (Primaxin®) was formulated in sterile 0.9% saline solution and administered subcutaneously (SC) at a dose of 5 mg/kg to mice in a 0.2 mL volume near the dorsal scapular region for CLP-induced lung injury study. LPS was dissolved in sterile 0.9% saline solution and 100 µL was administered intratracheally for the ALI study.\n(§2) Three models of ALI were used in the current study: hyperoxia-, LPS-, and CLP-induced lung injury: LPS-induced ALI was induced by administering a one-time intratracheal instillation of LPS (100 µg in a volume of 100 µL). Animals were sacrificed after 24 h following LPS administration while two doses of AVR-25 and AVR-48 were administered (10 mg/kg, IP) at 4 h and 12 h following LPS dosing. Hyperoxia-induced ALI was initiated by keeping the mice in cages in airtight polypropylene chamber exposed to hyperoxia (100% oxygen) for 48 h, following a standard protocol. Two doses of AVR-25 and AVR-48 were administered (10 mg/kg, IP) at 4 h and 12 h following hyperoxia exposure, and mice were sacrificed after 48 h.\n(§3) At the end of the experimental time points for all the above groups, the mice were euthanized with an overdose of a cocktail of xylazine (100 mg/kg)/ketamine (10 mg/kg, IP) and BALF and lung tissues were harvested for further analysis. Male mice were used for all the ALI experiments.\n(§4) BALF was obtained from the anesthetized mice by cannulating the upper part of the trachea with a blunt 22-gauge needle and then by lavaging three times with 1.0 mL of cold PBS (pH 7.4). The fluid recovery rate was about 90%. Lavaged samples were kept on ice, and the BALF was centrifuged at 4 °C. Total cell counts in BALF were determined using the TC20 automated cell counter (Bio-Rad Laboratories, Inc., Hercules, CA, USA). The differential cell counts were performed on cytospin preparations after staining with the Hema 3 differential Staining kit (Fisher Scientific, Kalamazoo, MI, USA). Total protein concentration in the BALF was measured using the Pierce^TM BCA assay kit (Fisher Scientific Co, Houston, TX, USA), as previously described.\n(§5) Lung endothelium permeability was determined by measuring the accumulation of Evans blue in the lungs, as previously described. In brief, Evans blue dye (EBD) solution (Sigma-Aldrich, Inc., St. Louis, MO, USA, 5 mg/mL) was injected into the tail vein at a concentration of 50 mg/kg before 30 min of the experimental time point. At the experimental time points, lungs were excised and weighed. EBD was extracted in 2 mL formamide kept in a water bath at 60 °C for 3 h, and the samples were centrifuged at 500 g for 10 min. The absorption of light at 595 nm was measured spectrophotometrically (Microplate reader, Bio-Rad Laboratories, Hercules, CA, USA) with the supernatants.\n(§6) Interleukin (IL)-6, IL-1β, and IL-10 were quantified on BALF while E-selectin was quantified in lung homogenate using commercially available DuoSet® ELISA kits (R&D Systems, Minneapolis, MN, USA) according to the manufacturer’s instructions, as previously described. Briefly, Nalgene Nunc Maxisorp™ plates were coated overnight with antibodies to IL-6 (2 µg/mL), IL-1β (2 µg/mL) IL-10 (2 µg/mL), or E-selectin (2 µg/mL) and the following morning plates were washed and blocked for 2 h. Samples were added to the wells at various dilutions and then incubated with detection antibody for 2 h. Plates were subsequently washed, and streptavidin-HRP conjugate antibody was added to each well for 20 min. […]"}, "[2]": {"system": "hyperoxia-induced ALI mice", "experiment": "Hyperoxia-induced ALI murine model", "type": "in vivo, C57BL6/J mice", "experimental": "as §1, §2, §3, §4, §5, §6"}, "[3]": {"details": "10 mg/kg IP at 4 h and 12 h after LPS, 24 h, vs untreated ALI mice"}, "[4]": {"details": "10 mg/kg IP x2, ELISA, vs non-treated ALI mice"}, "[5]": {"details": "10 mg/kg IP at 4 h and 12 h of hyperoxia (100% oxygen), 48 h"}}}
{"smiles": "CC(=O)N[C@H]1[C@H](Oc2ccc([N+](=O)[O-])cc2)O[C@H](CO)[C@@H](O)[C@@H]1O", "note": "[AVR-48, N-((2S,3R,4R,5S,6R)-4,5-dihydroxy-6-(hydroxymethyl)-2-(4-nitrophenoxy)tetrahydro-2H-pyran-3-yl) acetamide]", "values": [{"measurement": "AVR-48 in BALF", "setting": "[1]; 6 h post administration", "result": "measurable concentrations"}, {"measurement": "Kp at 6 h", "setting": "[1]; Sprague Dawley, rat, BALF (bronchoalveolar lavage fluid) relative to plasma, intravenous, 6 h time point, read-out: BALF-to-plasma ratio", "result": "2.81 to 9.08"}, {"measurement": "AVR-48 in BALF", "setting": "[1]; by 12 h", "result": "below the limit of detection"}, {"measurement": "pro-inflammatory cytokines IL-1β and IL-6 levels in BALF and lung tissues", "setting": "LPS-induced ALI mice; 10 mg/kg IP at 4 h and 12 h after LPS, 24 h, ELISA, Western blot", "result": "decreased"}, {"measurement": "neutrophil cell counts in BALF", "setting": "LPS-induced ALI mice; [3]", "result": "decreased counts"}, {"measurement": "total inflammatory cell counts in BALF", "setting": "LPS-induced ALI mice; [3]", "result": "decreased counts"}, {"measurement": "Evans Blue dye leak concentration in the lungs", "setting": "LPS-induced ALI mice; 10 mg/kg IP x2", "result": "diminished levels"}, {"measurement": "expression of lung adhesion molecules ICAM-1, VCAM-1, and E-selectin in whole lung tissue", "setting": "LPS-induced ALI mice; 10 mg/kg IP x2", "result": "decreased expression"}, {"measurement": "total proteins in BALF (pulmonary edema)", "setting": "LPS-induced ALI mice; 10 mg/kg IP x2", "result": "diminished levels"}, {"measurement": "lung injury score (H&E)", "setting": "LPS-induced ALI mice; 10 mg/kg IP x2, 0-4 scoring, vs ALI mice without treatment", "result": "decreased lung injury scores"}, {"measurement": "IL-10 levels in BALF", "setting": "LPS-induced ALI mice; [4]", "result": "further increase"}, {"measurement": "expression of cleaved caspase-3 in lungs (lung cell death)", "setting": "LPS-induced ALI mice; 10 mg/kg IP x2, Western blot", "result": "reduced expression"}, {"measurement": "expression of endothelial AJ proteins VE-cadherin and β-catenin in whole lungs", "setting": "LPS-induced ALI mice; 10 mg/kg IP x2, Western blot", "result": "increased expression"}, {"measurement": "neutrophils infiltration into the lung (BALF)", "setting": "[2]; [5]", "result": "diminished"}, {"measurement": "total immune cells infiltration into the lung (BALF)", "setting": "[2]; [5]", "result": "diminished"}, {"measurement": "Evans Blue dye leak concentration in the lungs", "setting": "[2]; 10 mg/kg IP x2", "result": "diminished levels"}, {"measurement": "expression of lung adhesion molecules ICAM-1, VCAM-1, and E-selectin in whole lung tissue", "setting": "[2]; 10 mg/kg IP x2", "result": "decreased expression"}, {"measurement": "total proteins in BALF (pulmonary edema)", "setting": "[2]; 10 mg/kg IP x2", "result": "diminished levels"}, {"measurement": "levels of pro-inflammatory cytokines (IL-1β, IL-6) in BALF and lung tissues", "setting": "[2]; 10 mg/kg IP x2, 48 h, vs untreated ALI mice", "result": "decreased levels"}, {"measurement": "lung injury (H&E, injury score)", "setting": "[2]; 10 mg/kg IP x2, 0-4 scoring", "result": "improved lung injury"}, {"measurement": "IL-10 levels in BALF", "setting": "[2]; [4]", "result": "further increase"}, {"measurement": "expression of cleaved caspase-3 in lungs (lung cell death)", "setting": "[2]; 10 mg/kg IP x2, Western blot", "result": "reduced expression"}, {"measurement": "expression of endothelial AJ proteins VE-cadherin and β-catenin in whole lungs", "setting": "[2]; 10 mg/kg IP x2, Western blot", "result": "increased expression"}, {"measurement": "expression of phosphorylated-Src in whole lungs", "setting": "[2]; 10 mg/kg IP x2, Western blot", "result": "decreased expression"}]}
